In patent US8895745B2, “Bicyclic heterocyclic compounds as FGFR inhibitors” (Astex Therapeutics Limited, priority 2006, dated 2014):
Structures can show the parent of a compound that is named as a salt.

What follows are compounds tested on LP-1 cell line (assay: Cell-based pERK ELISA method, LP-1 cells). Conditions: Homo sapiens, LP-1, read-out: IC50 less than 1 μM or at least 50% inhibition at a concentration of 1 μM, LP-1 pERK ELISA.
Protocol: LP-1 or JIM-1 multiple myeloma cells were seeded in 96 well plates at 1×10^6 cells/ml in 200 ul per well in serum free media. […] Cells were incubated for 16 h at 37° C. prior to the addition of a test compound for 30 minutes. Test compounds were administered at a 0.1% final DMSO concentration. […] ELISA plates and standards were prepared according o the standard DuoSet protocols and the relative amounts of pERK to total ERK in each sample calculated according to the standard curve.
In particular, compounds of the invention were tested against the LP-1 cell line (DSMZ no.: ACC 41) derived from human multiple myeloma.

IC50	SMILES
< 1 µM	CS(=O)(=O)NCc1cccc(-c2ccn3c(-c4cccc(NC(=O)NCC(F)(F)F)c4)cnc3c2)c1 [Example 239, N-[3-(3-{3-[3-(2,2,2-Trifluoro-ethyl)-ureido]-phenyl}-imidazo[1,2-a]pyridin-7-yl)-benzyl]-methane-sulfonamide]
< 1 µM	O=C(NCC(F)(F)F)Nc1cccc(-c2cnc3cc(-c4cccc(F)c4)ccn23)c1 [Example 143, 1-{3-[7-(3-Fluoro-phenyl)-imidazo[1,2-a]pyridin-3-yl]-phenyl}-3-(2,2,2-trifluoro-ethyl)-urea Hydrochloride]
< 1 µM	CC(=O)N1CCC(Oc2cccc(-c3ccn4c(-c5cccc(NC(=O)NCC(F)(F)F)c5)cnc4c3)c2)CC1 [Example 193, 1-(3-{7-[3-(1-Acetyl-piperidin-4-yloxy)-phenyl]-imidazo[1,2-a]pyridin-3-yl}-phenyl)-3-(2,2,2-trifluoro-ethyl)-urea Formate]
< 1 µM	O=C(NCC(F)(F)F)Nc1cccc(-c2cnn3cc(-c4ccc(F)cc4)cnc23)c1 [Example 123, 1-{3-[6-(4-Fluoro-phenyl)-pyrazolo[1,5-a]pyrimidin-3-yl]-phenyl}-3-(2,2,2-trifluoro-ethyl)-urea]
< 1 µM	Cc1ccn2c(-c3cccc(NC(=O)NCC(F)(F)F)c3)cnc2c1 [Example 225]
< 1 µM	O=C(NCC(F)(F)F)Nc1cccc(-c2cnc3cc(-c4ccc(Cl)c(F)c4)ccn23)c1 [Example 280, 1-{3-[7-(4-Chloro-3-fluoro-phenyl)-imidazo[1,2-a]pyridin-3-yl]-phenyl}-3-(2,2,2-trifluoro-ethyl)-urea]
< 1 µM	O=C(NCC(F)(F)F)Nc1cccc(-c2cnc3cc(-c4ccc(F)nc4)ccn23)c1 [Example 174, 1-{3-[7-(6-Fluoro-pyridin-3-yl)-imidazo[1,2-a]pyridin-3-yl]-phenyl}-3-(2,2,2-trifluoro-ethyl)-urea]
< 1 µM	CN(C)C(=O)/C=C/c1ccn2c(-c3cccc(NC(=O)NCC(F)(F)F)c3)cnc2c1 [Example 345, (E)-N,N-Dimethyl-3-(3-{3-[3-(2,2,2-trifluoro-ethyl)-ureido]-phenyl}-imidazo[1,2-a]pyridin-7-yl)-acrylamide]
< 1 µM	CCNC(=O)Nc1cccc(-c2cnn3cc(-c4ccc(N)nc4)cnc23)c1 [Example 114, 1-{3-[6-(6-Amino-pyridin-3-yl)-pyrazolo[1,5-a]pyrimidin-3-yl]-phenyl}-3-ethyl-urea hydrochloride salt]
< 1 µM	Cn1cc(-c2cnc3c(-c4cccc(NC(=O)NCC(F)(F)F)c4)cnn3c2)cn1 [Example 127, 1-{3-[6-(1-Methyl-1H-pyrazol-4-yl)-pyrazolo[1,5-a]pyrimidin-3-yl]-phenyl}-3-(2,2,2-trifluoro-ethyl)-urea]
< 1 µM	O=C(NCC(F)(F)F)Nc1cccc(-c2cnc3cc(-c4ccccc4)ccn23)c1 [Example 149, 1-[3-(7-Phenyl-imidazo[1,2-a]pyridin-3-yl)-phenyl]-3-(2,2,2-trifluoro-ethyl)-urea Hydrochloride]
< 1 µM	CCNC(=O)Nc1cccc(-c2cnc3cc(-c4ccc(F)cc4)ccn23)c1 [Example 15, 1-Ethyl-3-{3-[7-(4-fluoro-phenyl)-imidazo[1,2-a]pyridin-3-yl]-phenyl}-urea formate salt]
< 1 µM	Cc1cc2ncc(-c3cccc(NC(=O)NCC(F)(F)F)c3)n2cc1Cl [Example 346, 1-[3-(6-Chloro-7-methyl-imidazo[1,2-a]pyridin-3-yl)-phenyl]-3-(2,2,2-trifluoro-ethyl)-urea]
< 1 µM	N#Cc1ccn2c(-c3cccc(NC(=O)NCC(F)(F)F)c3)cnc2c1 [Example 341, 1-[3-(7-Cyano-imidazo[1,2-a]pyridin-3-yl)-phenyl]-3-(2,2,2-trifluoro-ethyl)-urea]
< 1 µM	CC(=O)Nc1cccc(-c2cnc3cc(-c4ccc(OCC(O)CO)cc4)ccn23)c1 (centres unmarked) [Example 65, N-(3-{7-[4-(2,3-Dihydroxy-propoxy)-phenyl]-imidazo[1,2-a]pyridin-3-yl}-phenyl)-acetamide]
< 1 µM	CC(=O)Nc1cccc(-c2cnc3cc(-c4ccc(CN5CCOCC5)cc4)ccn23)c1 [Example 10, N-{3-[7-(4-Morpholin-4-ylmethyl-phenyl)-imidazo[1,2-a]pyridin-3-yl]-phenyl}-acetamide hydro-chloride salt]
< 1 µM	O=C(NCC(F)(F)F)Nc1cccc(-c2cnc3cc(-c4cccc(C(=O)N5CCOCC5)c4)ccn23)c1 [Example 150, 1-(3-{7-[3-(Morpholine-4-carbonyl)-phenyl]-imidazo[1,2-a]pyridin-3-yl}-phenyl)-3-(2,2,2-trifluoro-ethyl)-urea Hydrochloride]

IC50	SMILES
< 1 µM	O=C(NCC(F)(F)F)Nc1cccc(-c2cnc3cc(-c4cccc(C(=O)N5CCC5)c4)ccn23)c1 [Example 264, 1-(3-{7-[3- (Azetidine 1-carbonyl)-phenyl]-imidazo[1,2-a]pyridin-3-yl}-phenyl)-3-(2,2,2-trifluoro-ethyl)-urea]
< 1 µM	CN1CCN(c2ccc(-c3ccn4c(-c5cccc(NC(=O)NCC(F)(F)F)c5)cnc4c3)cc2)CC1 [Example 245, 1-(3-{7-[4-(4-Methyl-piperazin-1-yl)-phenyl]-imidazo[1,2-a]pyridin-3-yl}-phenyl)-3-(2,2,2-trifluoro-ethyl)-urea Acetic acid]
< 1 µM	COc1ccc(-c2ccn3c(-c4cccc(NC(=O)NCC(F)(F)F)c4)cnc3c2)cc1 [Example 271, 1-{3-[7-(4-Methoxy-phenyl)-imidazo[1,2-a]pyridin-3-yl]-phenyl}-3-(2,2,2-trifluoro-ethyl)-urea]
< 1 µM	O=C(NCC(F)(F)F)Nc1cccc(-c2cnc3cc(-c4cccc(C(=O)N5CCCNCC5)c4)ccn23)c1 [Example 283, 1-(3-{7-[3-([1,4] Diazepane-1-carbonyl)-phenyl]-imidazo[1,2-a]pyridin-3-yl}-phenyl)-3-(2,2,2-trifluoro-ethyl)-urea Hydrochloride]
< 1 µM	N#Cc1cc(NC(=O)NCC(F)(F)F)cc(-c2cnc3cc(-c4ccc(F)cc4)ccn23)c1 [Example 214, 1-{3-Cyano-5-[7-(4-fluoro-phenyl)-imidazo[1,2-a]pyridin-3-yl]-phenyl}-3-(2,2,2-trifluoro-ethyl)-urea]
< 1 µM	Cn1cc(-c2cnc3c(-c4cccc(NC(=O)NCC(F)(F)F)c4)cnn3c2)ccc1=O [Example 158, 1-{3-[6-(1-Methyl-6-oxo-1,6-dihydro-pyridin-3-yl)-pyrazolo[1,5-a]pyrimidin-3-yl]-phenyl}-3-(2,2,2-trifluoro-ethyl)-urea]
< 1 µM	CCNC(=O)Nc1cccc(-c2cnc3cc(-c4ccc(N5CCOCC5)nc4)ccn23)c1 [Example 49, 1-Ethyl-3-{3-[7-(6-morpholin-4-yl-pyridin-3-yl)-imidazo[1,2-a]pyridin-3-yl]-phenyl}-urea formate salt]
< 1 µM	CN1CCN(C(=O)c2cccc(-c3ccn4c(-c5cccc(NC(=O)NCC(F)(F)F)c5)cnc4c3)c2)CC1 [Example 220, 1-(3-{7-[3-(4-Methyl-piperazine-1-carbonyl)-phenyl]-imidazo[1,2-a]pyridin-3-yl}-phenyl)-3-(2,2,2-trifluoro-ethyl)-urea]
< 1 µM	CCNC(=O)Nc1cccc(-c2cnc3cc(-c4ccc(NCCN5CCOCC5)nc4)ccn23)c1 [Example 109, 1-Ethyl-3-(3-{7-[6-(2-morpholin-4-yl-ethylamino)-pyridin-3-yl]-imidazo[1,2-a]pyridin-3-yl}-phenyl)-urea hydro-chloride salt]
< 1 µM	O=C(NCC(F)(F)F)Nc1cccc(-c2cnc3cc(N4CCC4)ccn23)c1 [Example 202, 1-[3-(7-Azetidin-1-yl-imidazo[1,2-a]pyridin-3-yl)-phenyl]-3-(2,2,2-trifluoro-ethyl)-urea]
< 1 µM	Cn1cc(-c2cnc3c(-c4cncc(NC(=O)NCC(F)(F)F)c4)cnn3c2)cn1 [Example 349, 1-{5-[6-(1-Methyl-1H-pyrazol-4-yl)-pyrazolo[1,5-a]pyrimidin-3-yl]-pyridin-3-yl}-3-(2,2,2-trifluoro-ethyl)-urea]
< 1 µM	O=C1CN(Cc2cccc(-c3ccn4c(-c5cccc(NC(=O)NCC(F)(F)F)c5)cnc4c3)c2)CCN1 [Example 206, 1-(3-{7-[3-(3-Oxo-piperazin-1-ylmethyl)-phenyl]-imidazo[1,2-a]pyridin-3-yl}-phenyl)-3-(2,2,2-trifluoro-ethyl)-urea]
< 1 µM	Cc1nc(-c2ccn3c(-c4cccc(NC(=O)NCC(F)(F)F)c4)cnc3c2)cs1 [Example 348, 1-{3-[7-(2-Methyl-thiazol-4-yl)-imidazo[1,2-a]pyridin-3-yl]-phenyl}-3-(2,2,2-trifluoro-ethyl)-urea]
< 1 µM	CC(C)Oc1cc(NC(=O)NCC(F)(F)F)cc(-c2cnc3cc(-c4ccc(F)cc4)ccn23)c1 [Example 238, 1-{3-[7-(4-Fluoro-phenyl)-imidazo[1,2-a]pyridin-3-yl]-5-isopropoxy-phenyl}-3-(2,2,2-trifluoro-ethyl)-urea]
< 1 µM	CCNC(=O)Nc1cccc(-c2cnc3cc(-c4ccc(C(=O)N5CCN(C)CC5)cc4)ccn23)c1 [Example 81, 1-Ethyl-3-(3-{7-[4-(4-methyl-piperazine-1-carbonyl)-phenyl]-imidazo[1,2-a]pyridin-3-yl}-phenyl)-urea]
< 1 µM	O=C(NCC(F)(F)F)Nc1cccc(-c2cnc3cc(-c4ccnc(OC5CCOCC5)c4)ccn23)c1 [Example 212, 1-(3-{7-[2-(Tetrahydro-pyran-4-yloxy)-pyridin-4-yl]-imidazo[1,2-a]pyridin-3-yl}-phenyl)-3-(2,2,2-trifluoro-ethyl)-urea]

Same assay, conditions: Homo sapiens, LP-1, read-out: LP-1 pERK ELISA (μM)

IC50	SMILES
0.022 µM	Cn1cnc(-c2ccn3c(-c4cccc(NC(=O)NCC(F)(F)F)c4)cnc3c2)c1 [Example 375, 1-{3-[7-(1-Methyl-1H-imidazol-4-yl)-imidazo[1,2-a]pyridin-3-yl]-phenyl}-3-(2,2,2-trifluoro-ethyl)-urea]
0.033 µM	Cn1nnc(-c2ccn3c(-c4cccc(NC(=O)NCC(F)(F)F)c4)cnc3c2)n1 [Example 359, 1-{3-[7-(2-Methyl-2H-tetrazol-5-yl)-imidazo[1,2-a]pyridin-3-yl]-phenyl}-3-(2,2,2-trifluoro-ethyl)-urea]
